Test results as given in the supplement of paper PMC10307832.

Assays:
Experiment in all cases: relative viability (nuclei count vs DMSO), 5 days (fraction); higher = more cells survive
[1] = compound: O=C(C[C@H]1NCCC[C@@H]1O)Cn1cnc2cc(Br)c(Cl)cc2c1=O (racemic) [Halofuginone] + Nc1ncn([C@H]2C[C@H](O)[C@@H](CO)O2)c(=O)n1 [Decitabine] (partner 2 µM)
Summary of the method: (§1)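 Relative viability is defined as nuclei in treated wells over nuclei in vehicle wells. Duplicate plates were run and medians reported. Lung cancer cell lines in 1536-well plates were dosed by pin tool one day after seeding, with one drug or with a fixed anchor-drug dose plus five library-drug doses (not always all listed) in √10 steps, and nuclei were counted after 5 days.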

[2] = compound: Nc1ncn([C@H]2C[C@H](O)[C@@H](CO)O2)c(=O)n1 [Decitabine] + Cc1cc(Nc2cc(N3CCN(C)CC3)nc(Sc3ccc(NC(=O)C4CC4)cc3)n2)n[nH]1 [Tozasertib] (partner 0.1 µM)
Summary of the method: as §1

[3] = compound: O=C(C[C@H]1NCCC[C@@H]1O)Cn1cnc2cc(Br)c(Cl)cc2c1=O (racemic) [Halofuginone] + CS(=O)(=O)N1CCN(Cc2cc3nc(-c4cccc5[nH]ncc45)nc(N4CCOCC4)c3s2)CC1 [Pictilisib] (partner 1 µM)
Summary of the method: as §1

[4] = compound: O=C(C[C@H]1NCCC[C@@H]1O)Cn1cnc2cc(Br)c(Cl)cc2c1=O (racemic) [Halofuginone] + O=C(CCCCCCC(=O)Nc1ccccc1)NO [Vorinostat] (partner 1 µM)
Summary of the method: as §1

Row | Cell Line | relative viability ([1]; first compound 0.001 µM) | relative viability ([1]; first compound 0.003162 µM) | relative viability ([1]; first compound 0.01 µM) | relative viability ([1]; first compound 0.03162 µM) | relative viability ([1]; first compound 0.1 µM) | relative viability ([2]; first compound 0.04 µM) | relative viability ([2]; first compound 0.1265 µM) | relative viability ([2]; first compound 1.265 µM) | relative viability ([2]; first compound 4 µM) | relative viability ([3]; first compound 0.001 µM) | relative viability ([3]; first compound 0.003162 µM) | relative viability ([3]; first compound 0.01 µM) | relative viability ([3]; first compound 0.03162 µM) | relative viability ([3]; first compound 0.1 µM) | relative viability ([4]; first compound 0.001 µM) | relative viability ([4]; first compound 0.003162 µM) | relative viability ([4]; first compound 0.01 µM) | relative viability ([4]; first compound 0.03162 µM) | relative viability ([4]; first compound 0.1 µM) | relative viability ([2]; first compound 0.4 µM)
1 | RERF-LC-KJ | 0.842 | 0.807 | 0.664 | 0.753 | 0.563 | 0.511 | 0.446 | 0.309 | 0.379 | 0.568 | 0.601 | 0.543 | 0.531 | 0.433 | 0.8 | 0.675 | 0.605 | 0.718 | 0.604 | –
2 | SK-LU-1 | 0.705 | 0.599 | 0.714 | 0.606 | 0.422 | 0.283 | 0.288 | 0.238 | 0.24 | 0.766 | 0.633 | 0.557 | 0.493 | 0.415 | 0.835 | 0.818 | 0.839 | 0.787 | 0.368 | 0.214
3 | SK-MES-1 | 0.377 | 0.365 | 0.341 | 0.341 | 0.17 | 0.698 | 0.608 | 0.238 | 0.255 | 0.366 | 0.358 | 0.362 | 0.211 | 0.145 | 1.16 | 1.09 | 0.997 | 0.949 | 0.183 | 0.332
4 | SW 1573 | 0.627 | 0.552 | 0.491 | 0.282 | 0.135 | 0.165 | 0.167 | 0.124 | 0.108 | 0.451 | 0.532 | 0.435 | 0.34 | 0.18 | 1.27 | – | 0.775 | 0.601 | 0.167 | 0.172
